This note sets out measurements from patent US7423149B2, “Substituted n-aryl amidines as selective D1 dopamine receptor antagonists for the treatment of obesity and CNS disorders” (Schering Corporation, priority 2003, dated 2008).

Like-named read-outs stand apart in the source and are kept apart here.

Experiment [1] has as its target T1, human Dopamine D1 receptor (Homo sapiens, UniProt P21728).
T1 construct: expressed in transfected cells; host or cells: Ltk- cells (mouse fibroblasts), membrane preparation
Description: radioligand binding competition assay, displacement of [3H]SCH 23390 from D1 receptor (Ltk-cells membranes).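 For D1 binding and D2:D1 Selectivity: under 5 nM class also requires D2 to D1 selectivity above 500.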 From the text:
(§1) Biological Activity: Compounds from this disclosure have been biologically characterized by their ability to displace a known D1-like selective ligand, [3H]SCH 23390 from the human Dopamine D1 receptor, and a known D2-like selective ligand, [3H] Methylspiperone, from the human Dopamine D2 and D4 receptors.
(§2) Affinity values (Ki) of compounds at human dopamine receptors were ascertained using radioligand binding competition assays. Cells expressing D1 (Ltk-cells), D2 (long variant, Ltk-cells), D4 (CHO cells) and D5 (GH4C1 cells) receptors were lysed in hypotonic buffer for membrane preparation. Membranes were incubated with various concentrations of test compound and 1 nM [3H] SCH 23390 (D1 and D5) and 0.2 nM [3H] Methylspiperone for (D2 and D4) assays. Non-specific binding was defined as binding in the presence of 10 micromolar of SCH 23390 for D1 and D5 assays and 10 micromolar butaclamol for D2 and D4 assays. Following incubation to equilibrium (1 hour at room temperature), bound radioligand was separated from free by rapid filtration. Bound radioactivity on the dried filters was quantified by liquid scintillation counting.
(§3) Selectivity is determined by dividing Ki for D2, D4 or D5 receptors by Ki for D1 receptor.

Experiment [2] has as its target T2, human Dopamine D2 receptor (Homo sapiens, UniProt P14416).
T2 construct: expressed in transfected cells; host or cells: Ltk- cells (mouse fibroblasts), membrane preparation
The experiment is described as follows: radioligand binding competition assay, displacement of [3H] Methylspiperone from D2 receptor (long variant, Ltk-cells membranes). As to conditions: Ki for D2 divided by Ki for D1.
Text: as §1, §2, §3
(In general: Loss of bound radioactivity is the signal in a displacement assay; it reports binding, not function.)

T1 sequence (P21728 whole entry): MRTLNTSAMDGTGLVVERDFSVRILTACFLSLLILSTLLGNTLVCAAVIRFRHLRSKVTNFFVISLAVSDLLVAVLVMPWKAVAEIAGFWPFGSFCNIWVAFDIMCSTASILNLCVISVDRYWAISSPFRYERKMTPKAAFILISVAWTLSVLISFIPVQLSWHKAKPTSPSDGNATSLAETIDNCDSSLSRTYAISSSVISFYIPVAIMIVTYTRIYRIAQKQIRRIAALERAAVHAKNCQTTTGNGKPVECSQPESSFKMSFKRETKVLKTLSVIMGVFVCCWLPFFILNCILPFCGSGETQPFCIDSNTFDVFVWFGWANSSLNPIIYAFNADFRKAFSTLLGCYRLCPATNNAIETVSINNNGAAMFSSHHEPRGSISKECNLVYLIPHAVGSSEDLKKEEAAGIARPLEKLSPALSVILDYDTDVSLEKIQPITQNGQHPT
T2 sequence (P14416 whole entry): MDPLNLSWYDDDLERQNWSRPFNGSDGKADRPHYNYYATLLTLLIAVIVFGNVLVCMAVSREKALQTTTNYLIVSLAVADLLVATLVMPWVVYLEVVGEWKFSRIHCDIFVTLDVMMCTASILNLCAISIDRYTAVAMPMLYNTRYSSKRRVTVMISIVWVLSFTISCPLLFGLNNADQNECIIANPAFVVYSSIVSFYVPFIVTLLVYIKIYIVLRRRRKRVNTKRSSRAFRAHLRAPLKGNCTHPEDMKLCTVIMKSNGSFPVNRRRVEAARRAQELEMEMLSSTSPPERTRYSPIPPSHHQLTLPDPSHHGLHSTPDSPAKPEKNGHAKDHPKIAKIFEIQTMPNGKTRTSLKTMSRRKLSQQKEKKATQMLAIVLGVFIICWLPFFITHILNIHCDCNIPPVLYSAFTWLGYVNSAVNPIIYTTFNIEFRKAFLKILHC

On to `N=C(/C=C/c1ccc(N2CCNCC2)cc1Cl)Nc1ccc(Cl)cc1` [Example 42, (E)-N-(4-Chlorophenyl)-3-[2-chloro-4(piperazin-1-yl)phenyl]-2-propenimidamide], for which the Ki in experiment [1] (class combines Ki (D1) and, for A and B, D2:D1 selectivity (Ki D2 / Ki D1), read-out: D1 binding and D2:D1 Selectivity) was under 5 nM; in experiment [1] (human D1 receptor, [3H] SCH 23390, read-out: Ki (D1) value), 0.9 nM. Also, the “D2:D1 ratio value” in experiment [2] came out at 1258.5.
